These results are taken from patent publication US20250332112A1, “IONIZABLE CATIONIC LIPIDS FOR LIPID NANOPARTICLES” (GENEVANT SCIENCES GMBH, priority 2022, published 2025).

A short description of data set [1]: Particle characteristics of LNPs containing luciferase mRNA and novel ionizable lipids. Type of data set: physicochemical. As to conditions: luciferase mRNA LNP 1.6:54.6:32.8:10.9. How it is done: The lipid solution contains 4 components: a PEG-conjugated lipid, an ionizable lipid, cholesterol, and a phospholipid (e.g., DSPC). Lipid stocks were prepared using the lipid identities and molar ratios as described, to achieve a total concentration of ˜7 mg/mL in 100% ethanol. Firefly luciferase mRNA (TriLink Biotechnologies, L-7202) or ornithine transcarbamylase (OTC) mRNA (TriLink Biotechnologies, custom designed) was diluted in acetate, pH 5 buffer and nuclease free water to achieve a target concentration of 0.366 mg/mL mRNA in 100 mM acetate, pH 5. Equal volumes of the lipid and nucleic acid solutions were blended at a flow rate of 400 mL/min through a T-connector, and diluted with ˜4 volumes of PBS, pH 7.4. Formulations were placed in Slide-A-Lyzer dialysis units (MWCO 10,000) and dialyzed overnight against 10 mM Tris, 500 mM NaCl, pH 8 buffer. Following dialysis, the formulations were concentrated to ˜0.6 mg/mL using VivaSpin concentrator units (MWCO 100,000) and dialyzed overnight against 5 mM Tris, 10% sucrose, pH 8 buffer. Formulations were filtered through a 0.2 μm syringe filter (PES membrane). Nucleic acid concentration was determined by the RiboGreen assay. Particle size and polydispersity were determined using a Malvern Nano Series Zetasizer.
LNP formulations containing novel ionizable lipids all produced stable particles with high encapsulation efficiency (Tables 1-7).

For data set [2], the system named is luciferase activity in the liver. Kind of data set: Luciferase activity in liver after intravenous luciferase mRNA LNP. Type of data set: in vivo. As to conditions: 0.5 mg/kg IV, 6 h post-IV administration, BALB/c mice (n = 4). On the procedure: Frozen aliquots of liver were thawed and homogenized in 1 mL of 1×CCLR (Cell Culture Lysis Reagent) using a FastPrep® homogenizer. The homogenate was then centrifuged at 16,000 RPM for 10 minutes at 4° C. Twenty (20) μL of the supernatant was loaded into a 96-well white plate and luminescence measured following addition of luciferase reagent (Promega Luciferase Assay System). Luciferase activity was determined by comparing luminescence of the homogenized samples to luciferase protein standards. To account for any quenching of luminescence by components in the liver homogenate, luciferase was added to the liver homogenates of untreated animals and the resulting luminescence measured. The resulting quench factor was applied to all samples to obtain the corrected luciferase activity, and normalized per unit mass of tissue analyzed.

Data set [3] can be described thus: Parent ionizable lipid remaining in liver at 6 h after luciferase mRNA LNP (LC-MS). The data set is classed as in vivo. As to conditions: 6 h after IV 0.5 mg/kg Luciferase mRNA LNP. How it is done:
Liver tissues were treated with PBS and homogenized with a FastPrep machine, 3 cycles of 5 m/s×15 s. Homogenates from the PBS-treated control animals was pooled and used for standard curve preparation. Samples were extracted into a deep well plate with 250 μL of an internal suitability standard. Plates were centrifuged for 15 min at 4° C. and 2000 rpm. Analysis was performed using an Agilent 6520 QTOF coupled to an Agilent 1290 UHPLC, using reverse-phase LC separation. Quantitation of the ionizable lipid was by MS/MS against a calibration curve spiked into appropriately matched blank matrix. Calibration used a similar class of synthetic lipid as internal standard.
At 6 h post-dose, some treatment groups reported lower levels of novel ionizable lipid in mouse liver compared to the benchmark (Tables 16-18).

The mark [4] stands for this setting: Table 16, female BALB/c mice (n = 4).
The mark [5] stands for this setting: Table 18, female BALB/c mice (n = 4).

Take `CCCCCCCCCCC(CCCCCC(=O)OCC(CCCCCC)CCCCCCCC)N(CCCCCCCCCC)C(=O)CCCN(C)C` (centres unmarked) [Compound 4, 2-Hexyldecyl 7-(N-decyl-4-(dimethylamino)butanamido)heptadecanoate]: in data set [1] (Table 3), the “Final Product % EE” value is reported as 99%, the “Final Product PDI” value is 0.03 and the “Final Product Z-avg” value was 82 nm. Besides, the “Luc Activity” value in data set [2] (Table 10) was determined as 7.84E+07 pg/g liver. Further, the “Parent ionizable lipid remaining in liver, Average” value (from here on “Parent ionizable lipid remaining”) in data set [3] (setting [4]) worked out at 18.97 nmol/g liver.
With `CCCCCCCCCCC(CCCCCCCC(=O)OC(CCCCCC)CCCCCC)N(CCCCCCCCCC)C(=O)CCCN(C)C` (centres unmarked) [Compound 5, Tridecan-7-yl 9-(N-decyl-4-(dimethylamino)butanamido)nonadecanoate], in data set [1] (Table 6), the “Final Product % EE” value amounted to 99%, the “Final Product PDI” value was 0.05 and the “Final Product Z-avg” value turned out to be 68 nm. Also, the “Luc Activity” value in data set [2] (Table 13) was 9.49E+07 pg/g liver. The “Parent ionizable lipid remaining” value in data set [3] (Table 17, female mice (n = 4)) stood at 49.53 nmol/g liver.
In the case of `CCCCCCCCCCN(C(=O)CCCN(C)C)C(CCCCCCCCC)CCCCCCC(F)(F)C(=O)OCC(CCCCCC)CCCCCCCC` (centres unmarked) [Compound 17, 2-Hexyldecyl 9-(N-decyl-4-(dimethylamino)butanamido)-2,2-difluorooctadecanoate], in data set [1] (Table 6), the “Final Product % EE” value stood at 99%, the “Final Product PDI” value is given as 0.10 and the “Final Product Z-avg” value was determined as 68 nm. Moreover, the “Luc Activity” value in data set [2] (Table 13) was found to be 5.52E+07 pg/g liver. Moreover, the “Parent ionizable lipid remaining” value in data set [3] (Table 17, female mice (n = 4)) is given as 24.00 nmol/g liver. The “Parent ionizable lipid remaining” value in data set [3] (setting [5]) is on record as 36.58 nmol/g liver.
As to `CCCCCCCCCCN(C(=O)CCCN(C)C)C(CCCCCCCCC)CCCCCCC(F)(F)C(=O)OCCC(CCCCCCC)CCCCCCC` (centres unmarked) [Compound 18, 3-Heptyldecyl 9-(N-decyl-4-(dimethylamino)butanamido)-2,2-difluorooctadecanoate], in data set [1] (Table 6), the “Final Product % EE” value came out at 98%, the “Final Product PDI” value is given as 0.07 and the “Final Product Z-avg” value stood at 73 nm. Further, the “Luc Activity” value in data set [2] (Table 13) amounted to 4.32E+07 pg/g liver. Moreover, in data set [3] (Table 17, female mice (n = 4)), the “Parent ionizable lipid remaining” value came to 17.02 nmol/g liver.
For the compound `CCCCCCCCCCN(C(=O)CCCN(C)C)C(CCCCCCCCC)CCCCCCC(F)(F)C(=O)OC(CCCCC)CCCCC` (centres unmarked) [Compound 19, Undecan-6-yl 9-(N-decyl-4-(dimethylamino)butanamido)-2,2-difluorooctadecanoate], in data set [1] (Table 6), the “Final Product % EE” value is on record as 99%, the “Final Product PDI” value came out at 0.09 and the “Final Product Z-avg” value came to 71 nm. Also, in data set [2] (Table 13), the “Luc Activity” value is 1.25E+06 pg/g liver. Moreover, the “Parent ionizable lipid remaining” value in data set [3] (Table 17, female mice (n = 4)) was found to be 20.22 nmol/g liver.
Consider `CCCCCCCCCCN(C(=O)CCCN(C)C)C(CCCCCCCCC)CCCCCCC(F)(F)C(=O)OCCC(CCCCC)CCCCC` (centres unmarked) [Compound 20, 3-Pentyloctyl 9-(N-decyl-4-(dimethylamino)butanamido)-2,2-difluorooctadecanoate], for which, in data set [1] (Table 7), the “Final Product % EE” value was 98%, the “Final Product PDI” value is recorded as 0.08 and the “Final Product Z-avg” value amounted to 72 nm. In addition, the “Luc Activity” value in data set [2] (Table 14) is given as 2.71E+07 pg/g liver. Besides, the “Parent ionizable lipid remaining” value in data set [3] (setting [5]) was found to be 1.82 nmol/g liver.
As to `CCCCCCCCCCCCCOC(=O)CCCCC(CCCCCCCCCC)N(CCN(C)C)C(=O)CCCCC(=O)OCC(CCCC)CCCCCC` (centres unmarked) [Compound 23, tridecyl 6-{6-[(2-butyloctyl)oxy]-N-[2-(dimethylamino)ethyl]-6-oxohexanamido}hexadecanoate], in data set [1] (Table 3), the “Final Product % EE” value amounted to 97%, the “Final Product PDI” value is recorded as 0.06 and the “Final Product Z-avg” value came out at 69 nm. Further, the “Luc Activity” value in data set [2] (Table 10) came to 4.44E+06 pg/g liver. Also, the “Parent ionizable lipid remaining” value in data set [3] (setting [4]) is 31.85 nmol/g liver.
In the same order, the values of `CCCCCCCCCCCCCOC(=O)CCCCC(CCCCCCCCCC)N(CCN(C)C)C(=O)CCCCCCC(=O)OCC(CCCC)CCCCCC` (centres unmarked) [Compound 24, Tridecyl 6-(8-((2-butyloctyl)oxy)-N-(2-(dimethylamino)ethyl)-8-oxooctanamido)-hexadecanoate] are 96%, 0.08, 72 nm, 3.98E+06 pg/g liver and 35.16 nmol/g liver.
In the same order, the values of `CCCCCCCCCCN(C(=O)CCCN(C)C)C(CCCCCCCCC)CC(=O)OCC(CCCCCC)CCCCCCCC` (centres unmarked) [Compound 32, 2-hexyldecyl 3-[N-decyl-4-(dimethylamino)-butanamido]dodecanoate] are 99%, 0.02, 85 nm, 3.07E+07 pg/g liver and 21.66 nmol/g liver.
On to `CCCCCCCCCC(CCCCCCC(F)C(=O)OCCC(CCCCC)CCCCC)N(CCCCCC(F)C(=O)OCCC(CCCCC)CCCCC)C(=O)CCCN(C)C` (centres unmarked) [Compound 34, 3-pentyloctyl 9-[4-(dimethylamino)-N-{6-fluoro-7-oxo-7-[(3-pentyloctyl)oxy]heptyl}butanamido]-2-fluorooctadecanoate], for which, in data set [1] (Table 7), the “Final Product % EE” value worked out at 99%, the “Final Product PDI” value came to 0.10 and the “Final Product Z-avg” value was determined as 70 nm. Further, the “Luc Activity” value in data set [2] (Table 14) is listed as 1.91E+06 pg/g liver. Moreover, in data set [3] (setting [5]), the “Parent ionizable lipid remaining” value was found to be 1.78 nmol/g liver.
In the case of `CCCCCCCCCCON(C(=O)CCCN(C)C)C(CCCCCCCCC)CCCCCCC(F)C(=O)OCCC(CCCCC)CCCCC` (centres unmarked) [Compound 38, 3-pentyloctyl 9-[N-(decyloxy)-4-(dimethylamino)butanamido]-2-fluorooctadecanoate], in data set [1] (Table 7), the “Final Product % EE” value is on record as 98%, the “Final Product PDI” value came out at 0.17 and the “Final Product Z-avg” value is reported as 65 nm. Also, the “Luc Activity” value in data set [2] (Table 14) is reported as 2.13E+07 pg/g liver. In data set [3] (setting [5]), the “Parent ionizable lipid remaining” value is recorded as 3.14 nmol/g liver.
Take `CCCCCCCCCCON(C(=O)CCCN(C)C)C(CCCCCCCCCC)CCCCCCC(F)(F)C(=O)OCCC(CCCCC)CCCCC` (centres unmarked) [Compound 39, 3-pentyloctyl 9-[N-(decyloxy)-4-(dimethylamino)butanamido]-2,2-difluorononadecanoate]: in data set [1] (Table 7), the “Final Product % EE” value turned out to be 98%, the “Final Product PDI” value turned out to be 0.19 and the “Final Product Z-avg” value is on record as 59 nm. In data set [2] (Table 14), the “Luc Activity” value was 4.30E+06 pg/g liver. Also, the “Parent ionizable lipid remaining” value in data set [3] (setting [5]) stood at 2.91 nmol/g liver.
In the same order, the values of `CCCCCCCCCCON(C(=O)CCCCN(C)C)C(CCCCCCCCCC)CCCCCC(=O)OCC(CCCCCC)CCCCCCCC` (centres unmarked) [Compound 47, 2-Hexyldecyl 7-(N-(decyloxy)-5-(dimethylamino)pentanamido)heptadecanoate] are 98%, 0.07, 77 nm, 8.09E+07 pg/g liver and 54.78 nmol/g liver.
Turning to `CCCCC/C=C\CCCN(CCC/C=C\CCCCC)NC(=O)CC(CCCCCCCCC)N(CCCN(C)C)C(=O)CCCCCCCCC` (centres unmarked) [Compound 54, N-(1-(2,2-di((Z)-Dec-4-en-1-yl)hydrazineyl)-1-oxododecan-3-yl)-N-(3-(dimethylamino)-propyl)decanamide], in data set [1] (Table 3), the “Final Product % EE” value is 97%, the “Final Product PDI” value came to 0.05 and the “Final Product Z-avg” value is listed as 82 nm. The “Luc Activity” value in data set [2] (Table 10) was found to be 3.28E+06 pg/g liver. Also, the “Parent ionizable lipid remaining” value in data set [3] (setting [4]) is 17.78 nmol/g liver.
